Measurements: EP1369117A1, “Use of derivatives and precursors of oxaziridine in the treatment of cancerous tumours” (priority 2002, dated 2003)
Converted amounts (≈) assume the structure as drawn. Read-outs that look alike come from different tables or passages of the source.

Experiments:
Assay type in all cases: cell-based
[1] = system: P388 (Lignée lymphoblastoïde murine); test: MTT test, anti-tumour activity on P388 cell line; details: for IC50: Mus musculus
Description: (§1) Différents composés de l'invention ont été testés pour leurs activités anti-tumorales sur différentes lignées tumorales murines ou humaines et comparés à des produits anti-tumoraux connus.
(§2) Les lignées cellulaires testées sont la lignée lymphoblastoïde murine P388, la lignée de mélanome murin B16, la lignée de kératinocytes humains HaCaT, la lignée de mélanome humain HBL.
(§3) L'action anti-tumorale des composés de l'invention a été testée sur ces différentes lignées après différentes durées d'incubation (30 minutes, 2 heures, 3 heures, 48 heures ou 72 heures).
(§4) En outre, différents types d'irradiation, différentes durées d'irradiation (30 minutes ou 60 minutes) ainsi que différentes durées d'incubation ont été testés.
(§5) Les différents résultats sont présentés dans le tableau 1 annexé.

[2] = system: B16 (Lignée de mélanome murin); test: MTT test, anti-tumour activity on B16 cell line; details: for IC50: Mus musculus, B16, light or radiation study
Description: as §1, §2, §3, §4, §5

[3] = system: HaCaT (Lignée de kératinocytes humains); test: MTT test, anti-tumour activity on HaCaT cell line; details: Homo sapiens, rest 24 h, incubation 3 h, 4°C, incubation before MTT test 45 h, read-out: Dose efficace DL50
Description: as §1, §2, §3, §4, §5

[4] = system: HBL (Lignée de mélanome humain); test: MTT test, anti-tumour activity on HBL cell line; details: Homo sapiens, rest 24 h, incubation 3 h, 4°C, incubation before MTT test 45 h, read-out: Dose efficace DL50
Description: as §1, §2, §3, §4, §5

[5] = light or radiation study, UVA Cléo + filtre UVB + polyéthylène, irradiation 60 min
[6] = light or radiation study, P388, rest after culture 24 h, incubation 2 h, no irradiation, incubation before MTT test 48 h, read-out: Dose efficace DL50
[7] = P388, rest after culture 24 h, incubation 48 h, no irradiation, incubation before MTT test 0 h
[8] = B16, rest after culture 24 h, incubation 2 h, no irradiation, incubation before MTT test 72 h, read-out: Dose efficace DL50
[9] = B16, rest after culture 24 h, incubation 72 h, no irradiation, incubation before MTT test 0 h, read-out: Dose efficace DL50
[10] = P388, rest after culture 24 h, incubation 2 h, no irradiation, incubation before MTT test 48 h
[11] = B16, rest after culture 24 h, incubation 2 h, no irradiation, incubation before MTT test 72 h
[12] = B16, rest after culture 24 h, incubation 72 h, no irradiation, incubation before MTT test 0 h
[13] = P388, light or radiation study, read-out: Dose efficace DL50, P388, rest after culture 24 h, incubation 2 h, no irradiation, incubation before MTT test 48 h
[14] = P388, light or radiation study, read-out: Dose efficace DL50, P388, rest after culture 24 h, incubation 48 h, no irradiation, incubation before MTT test 0 h
[15] = read-out: Dose efficace DL50, B16, rest after culture 24 h, incubation 2 h, no irradiation, incubation before MTT test 72 h
[16] = read-out: Dose efficace DL50, B16, rest after culture 24 h, incubation 72 h, no irradiation, incubation before MTT test 0 h

With `N[C@@H](Cc1ccc(N(CCCl)CCCl)cc1)C(=O)O` [Melphalan, reference compound] the “Dose efficace DL50” value [1] was 7 µg/mL, the IC50 ([1]; P388, light or radiation study, read-out: Dose efficace DL50) was 9 µg/mL (≈ 29.5 µM) and the “Dose efficace DL50” value [2] was 10 µg/mL. For the same compound, the IC50 ([2]; read-out: Dose efficace DL50) was 12 µg/mL (≈ 39.3 µM).

For `CNC1=Nc2ccc(Cl)cc2C(c2ccccc2)=[N+]([O-])C1` [chlordiazépoxide, chlorodiazépoxide, reference compound], the IC50 ([3]; light or radiation study, UVA Cléo + filtre UVB + polyéthylène, irradiation 30 min) was 36 µg/mL, the IC50 [3, 5] was 24 µg/mL and the IC50 ([3]; no light source (---), 30 min) was greater than 100 µg/mL. For the same compound, the IC50 [1, 6] was greater than 100 µg/mL, the “Dose efficace DL50” value [1, 7] was greater than 100 µg/mL and the IC50 [4, 5] was 12 µg/mL. For the same compound, the IC50 ([4]; no light source (---), 30 min) was greater than 100 µg/mL, the IC50 ([2]; B16, rest 24 h, incubation 30 min, lampe de Wood, RT, irradiation 30 min, no time before washing (---), incubation before MTT test 72 h, read-out: Dose efficace DL50) was 7 µg/mL (≈ 23.4 µM) and the IC50 ([2]; B16, rest 24 h, incubation 30 min, lampe de Wood, RT, irradiation 30 min, time before washing 1 h, incubation before MTT test 72 h, read-out: Dose efficace DL50) was 9 µg/mL (≈ 30 µM). It also gave an IC50 [2, 8] greater than 100 µg/mL and an IC50 [2, 9] greater than 100 µg/mL.

For `CNC1=Nc2ccccc2C(c2ccccc2)=[N+]([O-])C1` [deschlordiazépoxide, deschlorodiazépoxide], the “Dose efficace DL50” value [1, 10] was greater than 100 µg/mL, the “Dose efficace DL50” value [1, 7] was greater than 100 µg/mL and the “Dose efficace DL50” value [2, 11] was greater than 100 µg/mL. The “Dose efficace DL50” value [2, 12] was greater than 100 µg/mL.

For `O=C1C[N+]([O-])=C(c2ccccc2)c2cc(Cl)ccc2N1` [démoxépan, demoxepan], the IC50 [1, 6] was greater than 100 µg/mL, the “Dose efficace DL50” value [1, 7] was greater than 100 µg/mL and the IC50 [2, 8] was greater than 100 µg/mL. The IC50 [2, 9] was greater than 100 µg/mL.

With `CNC1=Nc2ccc(Cl)cc2C2(c3ccccc3)ON2C1` (centres unmarked) [oxaziridine du chlordiazépoxide, oxaziridine de chlorodiazépoxide] the IC50 [1, 13] was 41 µg/mL (≈ 137 µM), the IC50 [1, 14] was 34 µg/mL (≈ 113 µM) and the IC50 [2, 15] was 32 µg/mL (≈ 107 µM). The IC50 [2, 16] was 15 µg/mL (≈ 50 µM).

With `O=C1CN2OC2(c2ccccc2)c2cc(Cl)ccc2N1` (centres unmarked) [oxaziridine du démoxépan, oxaziridine de demoxepan] the IC50 [1, 13] was 62 µg/mL (≈ 216 µM), the IC50 [1, 14] was 22 µg/mL (≈ 76.7 µM) and the IC50 [2, 15] was 22 µg/mL (≈ 76.7 µM). It also gave an IC50 [2, 16] of 11 µg/mL (≈ 38.4 µM).

In the case of “oxaziridine de deschlorodiazépoxide [oxaziridine du deschlordiazépoxide]”, the “Dose efficace DL50” value [1, 10] is reported as 22 µg/mL, the “Dose efficace DL50” value [1, 7] is reported as 12 µg/mL and the “Dose efficace DL50” value [2, 11] is reported as 14 µg/ml μg/ml. For the same compound, the “Dose efficace DL50” value [2, 12] was 8 µg/ml μg/ml.
